From ChEMBL document CHEMBL1201862, “PubChem BioAssay data set” (2004)
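1) Cells in 96-well plates. 2) Compound, 48 h, 5 concentrations. 3) Linear interpolation between surrounding doses. 4) Unreached endpoint = highest concentration. At the GI50, growth is halved.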 Activity calls are given as the source filed them. No stated cut-off is given here; in the data, active = GI50 up to about 1.1 µM and inactive = higher.

Legend:
Experiment in all cases: DTP human tumour cell line panel, 48 h
HCT-116 = test system: HCT-116
OVCAR-8 = test system: OVCAR-8
UACC-62 = test system: UACC-62
SNB-78 = test system: SNB-78
NCI-H226 = test system: NCI-H226
SK-OV-3 = test system: SK-OV-3
NCI-H23 = test system: NCI-H23
RPMI-8226 = test system: RPMI-8226
M14 = test system: M14
OVCAR-3 = test system: OVCAR-3
K562 = test system: K562
SF-539 = test system: SF-539
HCC 2998 = test system: HCC 2998
M19-MEL = test system: M19-MEL
RXF 393 = test system: RXF 393
SNB-19 = test system: SNB-19
DMS-114 = test system: DMS-114
HOP-92 = test system: HOP-92
HCT-15 = test system: HCT-15
CCRF-CEM = test system: CCRF-CEM
HOP-62 = test system: HOP-62
XF498 = test system: XF498
OVCAR-5 = test system: OVCAR-5
NCI-H460 = test system: NCI-H460
HT-29 = test system: HT-29
ACHN = test system: ACHN
CAKI-1 = test system: CAKI-1
A498 = test system: A498
SF-295 = test system: SF-295
KM12 = test system: KM12
UACC-257 = test system: UACC-257
A549 = test system: A549
SK-MEL-5 = test system: SK-MEL-5
HL-60 = test system: HL-60
COLO 205 = test system: COLO 205
Malme-3M = test system: Malme-3M
SN12C = test system: SN12C
OVCAR-4 = test system: OVCAR-4
KM-20L2 = test system: KM-20L2
SK-MEL-2 = test system: SK-MEL-2
MOLT-4 = test system: MOLT-4
UO-31 = test system: UO-31
SNB-75 = test system: SNB-75
IGROV-1 = test system: IGROV-1
TK-10 = test system: TK-10
DLD-1 = test system: DLD-1
U-251 = test system: U-251
SF-268 = test system: SF-268
SK-MEL-28 = test system: SK-MEL-28
786-0 = test system: 786-0
SR = test system: SR
SW-620 = test system: SW-620
LOX IMVI = test system: LOX IMVI
DMS-273 = test system: DMS-273
EKVX = test system: EKVX
LXFL 529 = test system: LXFL 529
NCI-H522 = test system: NCI-H522
HOP-18 = test system: HOP-18

## N=C(N)NS(=O)(=O)c1ccc(Nc2c3ccccc3nc3c(C(=O)N4CCN(CCO)CC4)ccc(Cl)c23)cc1
HCT-116
  GI50: > 100 µM (inactive)
OVCAR-8
  GI50: > 100 µM (inactive)
UACC-62
  GI50: > 100 µM (inactive)
SNB-78
  GI50: 30.5 µM (inactive)
NCI-H226
  GI50: > 100 µM (inactive)
SK-OV-3
  GI50: > 100 µM (inactive)
NCI-H23
  GI50: > 100 µM (inactive)
RPMI-8226
  GI50: > 100 µM (inactive)
M14
  GI50: > 100 µM (inactive)
OVCAR-3
  GI50: > 100 µM (inactive)
K562
  GI50: > 100 µM (inactive)
SF-539
  GI50: > 100 µM (inactive)
HCC 2998
  GI50: > 100 µM (inactive)
M19-MEL
  GI50: > 100 µM (inactive)
RXF 393
  GI50: > 100 µM (inactive)
SNB-19
  GI50: > 100 µM (inactive)
DMS-114
  GI50: > 100 µM (inactive)
HOP-92
  GI50: > 100 µM (inactive)
HCT-15
  GI50: > 100 µM
CCRF-CEM
  GI50: > 100 µM (inactive)
HOP-62
  GI50: > 100 µM (inactive)
XF498
  GI50: > 100 µM (inactive)
OVCAR-5
  GI50: > 100 µM (inactive)
NCI-H460
  GI50: > 100 µM (inactive)
HT-29
  GI50: > 100 µM (inactive)
ACHN
  GI50: > 100 µM (inactive)
CAKI-1
  GI50: > 100 µM (inactive)
A498
  GI50: > 100 µM (inactive)
SF-295
  GI50: > 100 µM (inactive)
KM12
  GI50: > 100 µM (inactive)
UACC-257
  GI50: > 100 µM (inactive)
A549
  GI50: > 100 µM (inactive)
SK-MEL-5
  GI50: > 100 µM (inactive)
HL-60
  GI50: > 100 µM (inactive)
COLO 205
  GI50: > 100 µM (inactive)
Malme-3M
  GI50: > 100 µM (inactive)
SN12C
  GI50: > 100 µM (inactive)
OVCAR-4
  GI50: > 100 µM (inactive)
KM-20L2
  GI50: > 100 µM (inactive)
SK-MEL-2
  GI50: > 100 µM (inactive)
MOLT-4
  GI50: > 100 µM (inactive)
UO-31
  GI50: > 100 µM (inactive)
SNB-75
  GI50: > 100 µM (inactive)
IGROV-1
  GI50: > 100 µM (inactive)
TK-10
  GI50: > 100 µM (inactive)
DLD-1
  GI50: > 100 µM (inactive)
U-251
  GI50: > 100 µM (inactive)
SF-268
  GI50: > 100 µM (inactive)
SK-MEL-28
  GI50: > 100 µM (inactive)

## O=C(CC/C(CC(=O)c1ccc(Br)cc1)=N\O)Nc1ccc(Cl)c(Cl)c1
HCT-116
  GI50: > 100 µM (inactive)
OVCAR-8
  GI50: > 100 µM (inactive)
UACC-62
  GI50: 27.2 µM (inactive)
SNB-78
  GI50: > 100 µM (inactive)
NCI-H226
  GI50: > 100 µM (inactive)
SK-OV-3
  GI50: > 100 µM (inactive)
NCI-H23
  GI50: > 100 µM (inactive)
786-0
  GI50: > 100 µM (inactive)
RPMI-8226
  GI50: 46.1 µM (inactive)
M14
  GI50: > 100 µM (inactive)
SR
  GI50: 40.3 µM (inactive)
SW-620
  GI50: 45.2 µM (inactive)
LOX IMVI
  GI50: > 100 µM (inactive)
OVCAR-3
  GI50: 57.5 µM (inactive)
K562
  GI50: 25.4 µM (inactive)
SF-539
  GI50: > 100 µM (inactive)
HCC 2998
  GI50: > 100 µM (inactive)
M19-MEL
  GI50: 64.7 µM (inactive)
DMS-273
  GI50: 82.8 µM (inactive)
RXF 393
  GI50: 29.2 µM (inactive)
DMS-114
  GI50: 27.9 µM (inactive)
HOP-92
  GI50: 68.2 µM (inactive)
EKVX
  GI50: 29.3 µM (inactive)
HCT-15
  GI50: 86.7 µM
CCRF-CEM
  GI50: 37.6 µM (inactive)
HOP-62
  GI50: > 100 µM (inactive)
OVCAR-5
  GI50: 54.6 µM (inactive)
NCI-H460
  GI50: > 100 µM (inactive)
HT-29
  GI50: 43.5 µM (inactive)
ACHN
  GI50: 65 µM (inactive)
A498
  GI50: 36.3 µM (inactive)
SF-295
  GI50: > 100 µM (inactive)
KM12
  GI50: 67.8 µM (inactive)
UACC-257
  GI50: 44.4 µM (inactive)
A549
  GI50: > 100 µM (inactive)
SK-MEL-5
  GI50: 29.8 µM (inactive)
HL-60
  GI50: 19.6 µM (inactive)
COLO 205
  GI50: 37.8 µM (inactive)
Malme-3M
  GI50: > 100 µM (inactive)
SN12C
  GI50: > 100 µM (inactive)
OVCAR-4
  GI50: 64 µM (inactive)
LXFL 529
  GI50: 47.3 µM (inactive)
KM-20L2
  GI50: > 100 µM (inactive)
SK-MEL-2
  GI50: > 100 µM (inactive)
MOLT-4
  GI50: 52.7 µM (inactive)
UO-31
  GI50: > 100 µM (inactive)
SNB-75
  GI50: 23.8 µM (inactive)
NCI-H522
  GI50: 20.5 µM (inactive)
IGROV-1
  GI50: 60.7 µM (inactive)
HOP-18
  GI50: 60.5 µM (inactive)
TK-10
  GI50: 18 µM (inactive)
DLD-1
  GI50: > 100 µM (inactive)
U-251
  GI50: > 100 µM (inactive)
SF-268
  GI50: > 100 µM (inactive)
SK-MEL-28
  GI50: > 100 µM (inactive)
